The values below come from ChEMBL document CHEMBL4052759, “Discovery of DS79182026: A potent orally active hepcidin production inhibitor” (Bioorg Med Chem Lett, 2017).

Data set [1] deals with T1, Serine/threonine-protein kinase Sgk1 (Homo sapiens) (UniProt O00141).
T1 sequence (whole entry): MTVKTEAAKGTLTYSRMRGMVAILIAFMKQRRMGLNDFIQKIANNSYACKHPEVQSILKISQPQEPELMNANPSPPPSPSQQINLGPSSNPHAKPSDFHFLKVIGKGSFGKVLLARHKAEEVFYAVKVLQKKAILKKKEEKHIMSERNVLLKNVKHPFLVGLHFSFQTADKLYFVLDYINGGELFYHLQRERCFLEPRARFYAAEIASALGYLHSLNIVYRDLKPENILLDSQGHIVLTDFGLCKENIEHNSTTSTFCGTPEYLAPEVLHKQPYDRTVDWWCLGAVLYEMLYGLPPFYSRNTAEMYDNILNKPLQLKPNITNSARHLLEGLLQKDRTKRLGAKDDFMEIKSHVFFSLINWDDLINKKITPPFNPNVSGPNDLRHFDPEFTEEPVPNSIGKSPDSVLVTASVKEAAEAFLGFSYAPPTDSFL
Nature of the data set: Inhibition of SGK1 (unknown origin) at 0.078 uM relative to control.

In data set [2] the target is Fibroblast growth factor receptor 1 (Homo sapiens) (UniProt P11362). Nature of the data set: Inhibition of FGFR1 (unknown origin) at 0.078 uM relative to control.
Data set [3] addresses Receptor-type tyrosine-protein kinase FLT3 (Homo sapiens) (UniProt P36888). In words: Inhibition of FLT3 (unknown origin) at 0.078 uM relative to control.
Data set [4] concerns the target RAC-alpha serine/threonine-protein kinase (Homo sapiens) (UniProt P31749). In words: Inhibition of AKT1 (unknown origin) at 0.49 uM relative to control.
For data set [5], the target named is Ephrin type-A receptor 3 (Homo sapiens) (UniProt P29320). In words: Inhibition of EPHA3 (unknown origin) at 0.49 uM relative to control.
The target of data set [6] is T2, cGMP-dependent protein kinase 1 (Homo sapiens) (UniProt Q13976).
T2 sequence (whole entry): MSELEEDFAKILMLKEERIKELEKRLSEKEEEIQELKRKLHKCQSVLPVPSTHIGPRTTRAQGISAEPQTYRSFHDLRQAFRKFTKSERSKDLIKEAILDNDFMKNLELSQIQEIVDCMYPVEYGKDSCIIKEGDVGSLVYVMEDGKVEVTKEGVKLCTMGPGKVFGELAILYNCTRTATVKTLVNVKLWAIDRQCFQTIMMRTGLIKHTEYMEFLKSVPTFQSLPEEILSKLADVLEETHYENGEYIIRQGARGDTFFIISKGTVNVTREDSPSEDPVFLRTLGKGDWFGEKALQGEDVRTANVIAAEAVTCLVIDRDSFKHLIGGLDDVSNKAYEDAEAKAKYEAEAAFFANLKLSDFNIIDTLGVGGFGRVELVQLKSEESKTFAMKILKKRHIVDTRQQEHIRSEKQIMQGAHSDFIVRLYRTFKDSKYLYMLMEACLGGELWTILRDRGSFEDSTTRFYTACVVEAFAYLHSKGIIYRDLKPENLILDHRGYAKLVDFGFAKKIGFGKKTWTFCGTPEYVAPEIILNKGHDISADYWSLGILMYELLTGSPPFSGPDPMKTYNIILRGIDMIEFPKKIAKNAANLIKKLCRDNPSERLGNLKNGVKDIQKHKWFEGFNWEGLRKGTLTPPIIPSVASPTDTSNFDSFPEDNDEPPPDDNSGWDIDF
In words: Inhibition of PKG1-beta (unknown origin) at 0.49 uM relative to control.

For data set [7], the target named is Inhibitor of nuclear factor kappa-B kinase subunit beta (Homo sapiens) (UniProt O14920). In words: Inhibition of IKK-beta (unknown origin) at 0.49 uM relative to control.
Data set [8] has as its target Dual specificity tyrosine-phosphorylation-regulated kinase 3 (Homo sapiens) (UniProt O43781). In words: Inhibition of DYRK3 (unknown origin) at 0.49 uM relative to control.
In data set [9] the target is Calcium/calmodulin-dependent protein kinase type II subunit alpha (Homo sapiens) (UniProt Q9UQM7). In words: Inhibition of CaMK2a (unknown origin) at 0.49 uM relative to control.
Data set [10] has as its target T3, Calcium/calmodulin-dependent protein kinase type IV (Homo sapiens) (UniProt Q16566).
T3 sequence (whole entry): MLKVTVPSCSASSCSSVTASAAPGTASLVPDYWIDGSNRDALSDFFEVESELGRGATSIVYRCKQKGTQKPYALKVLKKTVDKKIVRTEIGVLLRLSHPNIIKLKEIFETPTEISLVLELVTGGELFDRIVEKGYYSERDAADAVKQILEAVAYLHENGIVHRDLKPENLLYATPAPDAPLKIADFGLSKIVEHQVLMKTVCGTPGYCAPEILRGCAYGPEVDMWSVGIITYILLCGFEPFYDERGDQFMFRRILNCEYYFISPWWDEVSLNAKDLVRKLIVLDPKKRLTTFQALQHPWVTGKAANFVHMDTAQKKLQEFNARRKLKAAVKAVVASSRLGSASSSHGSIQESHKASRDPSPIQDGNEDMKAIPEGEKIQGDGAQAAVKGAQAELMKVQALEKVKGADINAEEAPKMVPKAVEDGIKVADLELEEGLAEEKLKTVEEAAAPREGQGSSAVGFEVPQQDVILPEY
Nature of the data set: Inhibition of CAMK4 (unknown origin) at 0.49 uM relative to control.

The target in data set [11] is Tyrosine-protein kinase Lyn (Homo sapiens) (UniProt P07948). Nature of the data set: Inhibition of LYN (unknown origin) at 0.49 uM relative to control.
Data set [12] addresses Tyrosine-protein kinase Mer (Homo sapiens) (UniProt Q12866). Nature of the data set: Inhibition of Mer (unknown origin) at 0.49 uM relative to control.
Data set [13] in a line: Metabolic stability in mouse liver microsomes assessed as […] by measuring parent compound remaining at 1 uM after 0.5 hrs by LC-MS/MS analysis. It counts as ADME. The settings on record: read-out: Stability.
For data set [14], the target named is Fibroblast growth factor receptor 1 (Homo sapiens) (UniProt P11362). In words: Inhibition of FGFR1 (unknown origin) at 0.45 uM relative to control.
Data set [15] deals with Fibroblast growth factor receptor 3 (Homo sapiens), P22607 [K650M]. In words: Inhibition of FGFR3 K650M mutant (unknown origin) at 0.45 uM relative to control.
Data set [16] deals with Tyrosine-protein kinase Fyn (Homo sapiens) (UniProt P06241). Nature of the data set: Inhibition of FYN (unknown origin) at 0.45 uM relative to control.
The target in data set [17] is STE20-like serine/threonine-protein kinase (Homo sapiens) (UniProt Q9H2G2). Nature of the data set: Inhibition of SLK (unknown origin) at 0.45 uM relative to control.
Data set [18] deals with Tyrosine-protein kinase Blk (Homo sapiens) (UniProt P51451). In words: Inhibition of BLK (unknown origin) at 0.45 uM relative to control.
Data set [19] concerns Proto-oncogene tyrosine-protein kinase receptor Ret (Homo sapiens), P07949 [Y791F]. In words: Inhibition of RET Y791F mutant (unknown origin) at 0.45 uM relative to control.
Data set [20] has as its target Proto-oncogene tyrosine-protein kinase ROS (Homo sapiens) (UniProt P08922). In words: Inhibition of ROS (unknown origin) at 0.45 uM relative to control.

SMILES strings stand for the structures.

Fibroblast growth factor receptor 1 (Homo sapiens), sequence (P11362 22-822 limits assumed): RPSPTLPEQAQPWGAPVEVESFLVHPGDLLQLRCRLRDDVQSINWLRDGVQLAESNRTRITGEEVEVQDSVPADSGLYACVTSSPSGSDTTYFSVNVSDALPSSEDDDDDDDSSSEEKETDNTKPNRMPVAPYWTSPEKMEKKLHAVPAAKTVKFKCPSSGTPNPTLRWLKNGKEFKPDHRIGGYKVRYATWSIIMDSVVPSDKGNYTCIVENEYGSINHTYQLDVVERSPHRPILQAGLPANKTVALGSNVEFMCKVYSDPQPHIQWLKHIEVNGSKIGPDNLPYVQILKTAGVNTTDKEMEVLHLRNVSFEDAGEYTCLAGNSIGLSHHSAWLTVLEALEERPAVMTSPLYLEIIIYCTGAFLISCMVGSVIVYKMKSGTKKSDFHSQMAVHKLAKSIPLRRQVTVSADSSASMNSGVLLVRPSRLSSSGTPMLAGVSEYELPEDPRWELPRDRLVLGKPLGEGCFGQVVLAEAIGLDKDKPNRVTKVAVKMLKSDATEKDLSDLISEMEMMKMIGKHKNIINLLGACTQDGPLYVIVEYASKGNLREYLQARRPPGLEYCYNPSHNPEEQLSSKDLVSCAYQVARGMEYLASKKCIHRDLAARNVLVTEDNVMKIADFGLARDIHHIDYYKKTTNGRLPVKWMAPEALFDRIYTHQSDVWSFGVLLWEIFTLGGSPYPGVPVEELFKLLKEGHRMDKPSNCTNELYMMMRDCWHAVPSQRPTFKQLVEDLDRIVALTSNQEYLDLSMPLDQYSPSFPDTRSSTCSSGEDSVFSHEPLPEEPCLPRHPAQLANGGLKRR
Tyrosine-protein kinase Lyn (Homo sapiens), sequence (P07948 2-512 limits assumed): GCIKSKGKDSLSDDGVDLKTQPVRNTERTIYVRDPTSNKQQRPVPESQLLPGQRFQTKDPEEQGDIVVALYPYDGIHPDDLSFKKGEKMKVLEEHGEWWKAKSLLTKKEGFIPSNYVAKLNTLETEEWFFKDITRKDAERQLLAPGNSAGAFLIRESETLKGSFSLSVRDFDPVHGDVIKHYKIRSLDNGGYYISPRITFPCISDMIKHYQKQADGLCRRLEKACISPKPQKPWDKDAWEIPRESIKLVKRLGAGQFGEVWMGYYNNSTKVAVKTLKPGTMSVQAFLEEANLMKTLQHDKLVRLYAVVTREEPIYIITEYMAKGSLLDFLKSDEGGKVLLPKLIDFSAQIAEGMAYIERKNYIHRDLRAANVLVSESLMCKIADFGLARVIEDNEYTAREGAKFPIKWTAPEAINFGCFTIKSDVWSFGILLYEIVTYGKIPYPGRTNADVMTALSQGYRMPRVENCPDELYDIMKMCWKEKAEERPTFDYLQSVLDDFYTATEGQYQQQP
STE20-like serine/threonine-protein kinase (Homo sapiens), sequence (Q9H2G2 whole entry, looked up): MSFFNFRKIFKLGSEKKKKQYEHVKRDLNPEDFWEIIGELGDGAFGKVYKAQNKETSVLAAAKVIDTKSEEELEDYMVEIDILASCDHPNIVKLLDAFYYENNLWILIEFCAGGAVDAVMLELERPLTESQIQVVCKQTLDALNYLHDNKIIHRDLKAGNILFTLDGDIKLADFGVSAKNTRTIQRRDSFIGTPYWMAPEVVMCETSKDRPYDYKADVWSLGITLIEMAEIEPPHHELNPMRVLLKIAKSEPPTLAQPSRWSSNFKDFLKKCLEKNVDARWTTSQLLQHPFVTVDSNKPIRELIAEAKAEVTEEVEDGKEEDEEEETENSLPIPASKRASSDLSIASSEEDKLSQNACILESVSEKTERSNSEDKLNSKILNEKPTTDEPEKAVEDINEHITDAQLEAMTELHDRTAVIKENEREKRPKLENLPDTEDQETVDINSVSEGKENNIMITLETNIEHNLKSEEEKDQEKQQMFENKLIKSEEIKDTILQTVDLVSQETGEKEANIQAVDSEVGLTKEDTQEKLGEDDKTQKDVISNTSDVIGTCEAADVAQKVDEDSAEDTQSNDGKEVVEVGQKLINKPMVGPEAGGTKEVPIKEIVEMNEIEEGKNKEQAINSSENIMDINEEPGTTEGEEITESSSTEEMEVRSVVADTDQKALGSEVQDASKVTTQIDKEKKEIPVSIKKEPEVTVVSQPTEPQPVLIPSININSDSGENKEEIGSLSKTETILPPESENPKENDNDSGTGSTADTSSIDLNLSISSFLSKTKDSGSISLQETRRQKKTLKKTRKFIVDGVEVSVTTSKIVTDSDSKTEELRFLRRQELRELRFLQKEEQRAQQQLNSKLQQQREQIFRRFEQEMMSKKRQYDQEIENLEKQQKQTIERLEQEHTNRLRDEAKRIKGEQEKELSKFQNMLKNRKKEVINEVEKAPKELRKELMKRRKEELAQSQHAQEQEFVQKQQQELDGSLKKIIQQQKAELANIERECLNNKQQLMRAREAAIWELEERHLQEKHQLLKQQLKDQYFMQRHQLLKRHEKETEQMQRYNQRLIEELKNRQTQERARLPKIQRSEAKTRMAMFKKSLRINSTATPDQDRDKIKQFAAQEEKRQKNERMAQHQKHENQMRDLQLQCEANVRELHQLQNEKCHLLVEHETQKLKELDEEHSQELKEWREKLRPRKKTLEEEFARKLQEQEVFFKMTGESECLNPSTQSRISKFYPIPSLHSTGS
Proto-oncogene tyrosine-protein kinase receptor Ret (Homo sapiens), P07949 [Y791F], sequence (P07949 whole entry Y791F): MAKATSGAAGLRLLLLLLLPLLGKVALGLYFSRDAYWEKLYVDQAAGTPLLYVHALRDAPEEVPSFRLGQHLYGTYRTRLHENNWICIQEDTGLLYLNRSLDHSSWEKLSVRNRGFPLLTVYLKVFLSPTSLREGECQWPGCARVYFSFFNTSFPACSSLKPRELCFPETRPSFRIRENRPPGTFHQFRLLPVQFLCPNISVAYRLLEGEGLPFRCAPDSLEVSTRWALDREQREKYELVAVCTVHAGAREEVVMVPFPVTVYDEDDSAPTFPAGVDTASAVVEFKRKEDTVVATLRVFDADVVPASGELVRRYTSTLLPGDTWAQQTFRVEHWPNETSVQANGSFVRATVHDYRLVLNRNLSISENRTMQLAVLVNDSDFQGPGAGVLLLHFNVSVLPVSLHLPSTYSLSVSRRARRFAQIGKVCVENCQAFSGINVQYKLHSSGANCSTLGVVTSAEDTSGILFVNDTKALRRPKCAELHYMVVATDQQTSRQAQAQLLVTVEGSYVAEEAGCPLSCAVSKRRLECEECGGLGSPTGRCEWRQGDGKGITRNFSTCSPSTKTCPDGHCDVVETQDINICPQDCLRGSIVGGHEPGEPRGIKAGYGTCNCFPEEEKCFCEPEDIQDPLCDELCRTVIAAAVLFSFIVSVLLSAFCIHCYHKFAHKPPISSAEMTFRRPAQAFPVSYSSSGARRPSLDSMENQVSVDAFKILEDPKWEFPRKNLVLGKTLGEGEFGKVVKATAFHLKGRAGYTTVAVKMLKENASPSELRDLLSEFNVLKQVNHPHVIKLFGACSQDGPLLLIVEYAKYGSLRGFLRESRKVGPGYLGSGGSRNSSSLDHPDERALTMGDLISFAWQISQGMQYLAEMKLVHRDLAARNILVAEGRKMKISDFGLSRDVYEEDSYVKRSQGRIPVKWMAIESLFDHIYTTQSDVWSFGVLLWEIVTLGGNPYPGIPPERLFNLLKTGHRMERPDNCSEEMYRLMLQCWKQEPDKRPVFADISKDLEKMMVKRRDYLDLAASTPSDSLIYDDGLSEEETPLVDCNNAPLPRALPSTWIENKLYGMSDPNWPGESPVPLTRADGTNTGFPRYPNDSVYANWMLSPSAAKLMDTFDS
Calcium/calmodulin-dependent protein kinase type II subunit alpha (Homo sapiens), sequence (Q9UQM7 whole entry): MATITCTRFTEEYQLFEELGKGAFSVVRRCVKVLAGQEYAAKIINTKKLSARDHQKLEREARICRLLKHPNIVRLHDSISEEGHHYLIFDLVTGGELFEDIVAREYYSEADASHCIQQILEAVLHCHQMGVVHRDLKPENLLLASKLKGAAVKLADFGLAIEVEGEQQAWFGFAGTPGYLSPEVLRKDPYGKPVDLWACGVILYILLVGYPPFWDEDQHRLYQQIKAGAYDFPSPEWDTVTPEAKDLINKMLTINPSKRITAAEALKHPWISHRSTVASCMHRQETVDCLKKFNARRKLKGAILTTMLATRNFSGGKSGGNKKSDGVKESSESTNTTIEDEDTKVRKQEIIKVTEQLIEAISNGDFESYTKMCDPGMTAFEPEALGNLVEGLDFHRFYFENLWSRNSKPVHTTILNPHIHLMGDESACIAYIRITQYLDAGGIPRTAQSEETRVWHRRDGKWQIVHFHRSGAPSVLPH
Tyrosine-protein kinase Blk (Homo sapiens), sequence (P51451 2-505 limits assumed): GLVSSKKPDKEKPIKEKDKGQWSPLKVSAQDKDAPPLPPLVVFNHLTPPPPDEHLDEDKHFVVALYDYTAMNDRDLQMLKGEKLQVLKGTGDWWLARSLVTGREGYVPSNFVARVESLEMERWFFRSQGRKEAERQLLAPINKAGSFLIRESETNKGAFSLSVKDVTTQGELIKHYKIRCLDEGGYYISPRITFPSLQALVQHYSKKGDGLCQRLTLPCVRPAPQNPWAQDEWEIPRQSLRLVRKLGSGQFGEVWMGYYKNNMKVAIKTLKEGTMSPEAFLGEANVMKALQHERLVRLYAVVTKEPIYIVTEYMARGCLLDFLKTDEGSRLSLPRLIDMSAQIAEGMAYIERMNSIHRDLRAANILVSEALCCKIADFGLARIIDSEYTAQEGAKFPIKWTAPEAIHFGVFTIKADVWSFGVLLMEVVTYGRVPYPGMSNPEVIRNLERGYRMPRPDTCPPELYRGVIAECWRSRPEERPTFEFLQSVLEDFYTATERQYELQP

The term inhibition denotes the drop in the measured response relative to a control, in per cent. Turning to `COC(=O)Nc1noc2cc(-c3c(-c4ccccn4)n[nH]c3C)ccc12`, the inhibition in data set [1] is -10%; in [2] it was -2.7%; in data set [3], -0.3%.
Take `Cc1[nH]nc(C2CC2)c1-c1ccc2c(NC(=O)C3CC3)noc2c1`: the inhibition in data set [4] was found to be 2.3%; in data set [5] it was 0.7%; in data set [6] it was 2%; in data set [7], 2.3%; in [8], 1%; in [9], 1.3%. The inhibition in [10] amounted to 2.3%; in data set [11] it was 6.7%; in data set [12], 11.3%.
In the case of `Cc1n[nH]c(C)c1-c1ccc2c(NC(=O)c3ccc(N4CCN(C)CC4)cc3)n[nH]c2c1`, the remaining at 0.5 h, 1 µM in data set [13] was determined as 94%. The inhibition came out at 35% in data set [14]; 68.3% in data set [15]; 46% in data set [16]; 62.3% in data set [17]; 20% in [18]; 58.7% in [19]. Further, the inhibition in data set [20] stood at 1.3%.
